According to patent US10781183B2, “Small molecule inducers of reactive oxygen species and inhibitors of mitochondrial activity” (The Regents of the University of Michigan, priority 2016, dated 2020):
Where two headings read alike, the source gives them in different places.

What was measured:
[1] = system: Panc-1 cells; assay: MTT cytotoxicity assay, Panc-1; type: cell-based; conditions: Homo sapiens, three independent experiments
Procedure: (§1) MiaPaCa-2, Panc-1 and BxPC-3 pancreatic cancer cell lines were obtained from the ATCC. Normal pancreatic cells HPDE and HPNE were kindly provided (Translational Oncology Program, University of […], Ann Arbor, Mich.). Gemcitabine resistant cell line MiaPaCa-2-GR (gemcitabine resistant) was kindly provided (Department of Pathology, Wayne State University, Detroit, Mich.). All cell lines were cultured as monolayer and maintained in RPMI1640 supplemented with 10% fetal bovine serum (FBS) in a humidified atmosphere with 5% CO2 at 37° C. MiaPaCa-2-GR culture was supplemented with 200 nM gemcitabine.
(§2) Cytotoxicity of compounds was evaluated with 3-(4,5-dimethylthiazol-2-yl)-2,5-diphenyltetrazolium bromide (MTT) assay. Cells were placed in 96-well plate at 3000-8000 cells/well. After overnight attachment, compounds were added to the wells at sequential dilutions (30 nM-10 μM for most cell lines). After 72 h treatment, MTT was added into the media to a final concentration of 300 μg/mL. Cells were incubated for 3 h at 37° C., and the insoluble formazan converted by viable cells were dissolved in 150 μL of DMSO. Absorbance at 570 nm was read by microplate reader (Molecular devices, Sunnyvale, Calif.), and inhibition of cell proliferation was calculated using the following formula: Inhibition of cell proliferation (%)=(1−ODtreatment/ODcontrol)×100%

[2] = system: MiaPaCa-2 cells; assay: MTT cytotoxicity assay, MiaPaCa-2; type: cell-based; conditions: Homo sapiens, MTT assay, Mean ± SD, three independent experiments
Procedure: as §1, §2

[3] = system: BxPC-3 cells; assay: MTT cytotoxicity assay, BxPC-3; type: cell-based; conditions: Homo sapiens, three independent experiments
Procedure: as §1, §2

[4] = PANC-1, 72 h, Table 1, 72 h, Mean ± SD
[5] = PANC-1, Table 2, Mean ± SD, read-out: IC 50 Panc-1
[6] = MIA PaCa-2, 72 h, Table 1, 72 h
[7] = MIA PaCa-2, Table 2, read-out: IC 50 MiaPaCa-2
[8] = BXPC-3, 72 h, Table 1, 72 h, Mean ± SD
[9] = BXPC-3, Table 2, Mean ± SD, read-out: IC 50 BxPC-3

| Structure (SMILES) | melting point [°C] | IC50 [1, 4] [µM] | IC50 [1, 5] [µM] | IC50 [2, 6] [µM] | IC50 [2, 7] [µM] | IC50 [3, 8] [µM] | IC50 [3, 9] [µM] |
| --- | --- | --- | --- | --- | --- | --- | --- |
| O=C1C(Nc2ccc3c(c2)Cc2ccccc2-3)=CC(=O)c2ncncc21 [QD391, 6-(9H-Fluoren-2-ylamino)quinazoline-5,8-dione] | 236 to 237 | – | – | – | – | – | – |
| CCc1ccc(-c2ccc(NC3=CC(=O)c4ncncc4C3=O)cc2)cc1 [QD392, 6-(4′-Ethylbiphenyl-4-ylamino)quinazoline-5,8-dione] | 247 | – | – | – | – | – | – |
| COc1cccc(NC2=CC(=O)c3ncncc3C2=O)c1 [QD353, 6-((3-methoxyphenyl)amino)quinazoline-5,8-dione] | 142 | 0.6 ± 0.1 | 0.6 ± 0.1 | 1.8 ± 0.3 | 1.8 ± 0.3 | 1.8 ± 0.1 | 1.8 ± 0.1 |
| O=C1C(Nc2cccc(-c3ccccc3)c2)=CC(=O)c2ncncc21 [QD385, 6-(Biphenyl-3-ylamino)quinazoline-5,8-dione] | 199 to 200 | – | – | – | – | – | – |
| O=C1C(Nc2ccc(N3CCCCC3)cc2)=CC(=O)c2ncncc21 [QD388, 6-(4-(Piperidin-1-yl)phenylamino)quinazoline-5,8-dione] | 209 | – | – | – | – | – | – |
| CCOC(=O)c1ccc(NC2=CC(=O)c3ncncc3C2=O)cc1 [QD332, Ethyl 4-((5,8-dioxo-5,8-dihydroquinazolin-6-yl)amino)benzoate] | 206 to 207 | 1.6 ± 0.3 | 1.6 ± 0.3 | 5.5 ± 1.5 | 5.5 ± 1.5 | 5.9 ± 0.1 | 5.9 ± 0.1 |
| O=C1C(Nc2ccc(C3CCCCC3)cc2)=CC(=O)c2ncncc21 [QD393, 6-(4-Cyclohexylphenylamino)quinazoline-5,8-dione] | 234 | – | – | – | – | – | – |
| O=C(NCCC[P+](c1ccccc1)(c1ccccc1)c1ccccc1)c1ccc(NC2=CC(=O)c3ncncc3C2=O)cc1 [QD340, (3-(4-((5,8-dioxo-5,8-dihydroquinazolin-6-yl)amino)benzamido)propyl) triphenylphosphonium bromide] | – | 11.7 ± 1.5 | 11.7 ± 1.5 | 15.3 ± 2.5 | 15.3 ± 2.5 | 21.5 ± 2.3 | 21.5 ± 2.3 |
| Cc1ccc(-c2ccc(NC3=CC(=O)c4ncncc4C3=O)cc2F)cc1 [QD338, 6-((2-fluoro-4′-methyl-[1,1′-biphenyl]-4-yl)amino)quinazoline-5,8-dione] | 282 to 283 | 4.8 ± 0.1 | 4.8 ± 0.1 | 4.6 ± 1.1 | 4.6 ± 1.1 | 5 ± 0.7 | 5 ± 0.7 |
| NS(=O)(=O)c1ccc(NC2=CC(=O)c3ncncc3C2=O)cc1 [QD328, 4-((5,8-dioxo-5,8-dihydroquinazolin-6-yl)amino)benzenesulfonamide] | > 320 | > 10 | > 10 | > 10 | > 10 | > 10 | > 10 |
| O=C1C(Nc2ccc(-c3ccccn3)cc2)=CC(=O)c2ncncc21 [QD395, 6-(4-(Pyridin-2-yl)phenylamino)quinazoline-5,8-dione] | 239 | – | – | – | – | – | – |
| O=C1C(Nc2cccc3c2-c2ccccc2C3)=CC(=O)c2ncncc21 [QD390, 6-(9H-Fluoren-4-ylamino)quinazoline-5,8-dione] | 217 | – | – | – | – | – | – |
| COc1ccc(NC2=CC(=O)c3ncncc3C2=O)cc1 [QD354, 6-((4-methoxyphenyl)amino)quinazoline-5,8-dione] | 238 | 0.8 ± 0.2 | 0.8 ± 0.2 | 1.9 ± 0.2 | 1.9 ± 0.2 | 1.7 ± 0.2 | 1.7 ± 0.2 |
| O=C1C(Nc2ccc(N3CCOCC3)cc2)=CC(=O)c2ncncc21 [QD389, 6-(4-Morpholinophenylamino)quinazoline-5,8-dione] | 226 to 227 | – | – | – | – | – | – |
| O=C1C(Nc2ccc(-c3ccc(Cl)cc3)cc2)=CC(=O)c2ncncc21 [QD386, 6-(4′-Chlorobiphenyl-4-ylamino)quinazoline-5,8-dione] | 292 to 293 | – | – | – | – | – | – |
| O=C1C(Nc2ccc(OC(F)(F)F)cc2)=CC(=O)c2ncncc21 [QD327, 6-((4-(trifluoromethoxy)phenyl)amino)quinazoline-5,8-dione] | 114 | 0.9 ± 0.1 | 0.9 ± 0.1 | 1.4 ± 0.2 | 1.4 ± 0.2 | 0.9 ± 0.1 | 0.9 ± 0.1 |
| O=C1C(Nc2ccc(Oc3ccccc3)cc2)=CC(=O)c2ncncc21 [QD324, 6-((4-phenoxyphenyl)amino)quinazoline-5,8-dione] | 169 to 171 | 1.8 ± 0.2 | 1.8 ± 0.2 | 3.7 ± 0.7 | 3.7 ± 0.7 | 3.6 ± 0.4 | 3.6 ± 0.4 |
| Nc1ccc(C(=O)NCCC[P+](c2ccccc2)(c2ccccc2)c2ccccc2)cc1.[Br-] [QD339, (3-(4-aminobenzamido)propyl) triphenylphosphonium bromide] | 203 to 205 | > 30 | > 30 | – | > 30 | – | > 30 |
| COc1ccc(NC2=CC(=O)c3ncncc3C2=O)cc1OC [QD355, 6-((3,4-dimethoxyphenyl)amino)quinazoline-5,8-dione] | – | 0.9 ± 0.3 | 0.9 ± 0.3 | 1.8 ± 0.1 | 1.8 ± 0.1 | 1.5 ± 0.2 | 1.5 ± 0.2 |
| O=C1C(Nc2ccc(CO)cc2)=CC(=O)c2ncncc21 [QD329, 6-((4-(hydroxymethyl)phenyl)amino)quinazoline-5,8-dione] | – | 1 ± 0.2 | 1 ± 0.2 | 3.5 ± 1.3 | 3.5 ± 1.3 | 2.7 ± 0.3 | 5.7 ± 0.3 |
| COc1cc(NC2=CC(=O)c3ncncc3C2=O)cc(OC)c1 [QD357, 6-((3,5-dimethoxyphenyl)amino)quinazoline-5,8-dione] | – | 7.2 ± 0.8 | 7.2 ± 0.8 | 7.7 ± 2 | 7.7 ± 2 | 16.3 ± 1.5 | 16.3 ± 1.5 |
| NC(=O)c1ccc(NC2=CC(=O)c3ncncc3C2=O)cc1 [QD330, 4-((5,8-dioxo-5,8-dihydroquinazolin-6-yl)amino)benzamide] | > 320 | 6.3 ± 0.3 | 6.3 ± 0.3 | 8 ± 0.9 | 8 ± 0.9 | > 10 | > 10 |
| O=C1C=CC(=O)c2ncncc21 [QD323, quinazoline-5,8-dione] | > 320 | – | – | – | – | – | – |
| Nc1ccc(-c2ccc(NC3=CC(=O)c4ncncc4C3=O)cc2)cc1 [QD337, 6-((4′-amino-[1,1′-biphenyl]-4-yl)amino)quinazoline-5,8-dione] | > 320 | 3.7 ± 0.1 | 3.7 ± 0.1 | 2.5 ± 0.2 | 2.5 ± 0.2 | 3.5 ± 0.6 | 3.5 ± 0.6 |
| O=C(NCCC[P+](c1ccccc1)(c1ccccc1)c1ccccc1)c1cccc(NC2=CC(=O)c3ncncc3C2=O)c1 [QD359, (3-(3-((5,8-dioxo-5,8-dihydroquinazolin-6-yl)amino)benzamido)propyl) triphenylphosphonium bromide] | – | 14.3 ± 1.5 | 14.3 ± 1.5 | 16.3 ± 3.6 | 16.3 ± 3.5 | 21.3 ± 2.5 | 21.3 ± 2.5 |
| O=C1C(Nc2ccc(-c3cc(Cl)cc(Cl)c3)cc2)=CC(=O)c2ncncc21 [QD387, 6-(3′,5′-Dichlorobiphenyl-4-ylamino)quinazoline-5,8-dione] | 260 to 261 | – | – | – | – | – | – |
